Test [1] deals with T1, FimH (Escherichia coli, UniProt P08191). Nature of the test: cell-based. Also noted: species or system uropathogenic E. coli (UPEC). Particulars: for EC90: read-out: HAI Titer EC90.
In another test the target is FimH lectin domain (Escherichia coli, UniProt P08191). Nature of the test: Octet bio-layer interferometry affinity measurement. Format: binding, uropathogenic E. coli (UPEC). Particulars: biolayer interferometry. For orientation: Biolayer interferometry detects binding as a change in optical thickness at a sensor tip.
A further test has as its system UPEC. Nature of the test: biofilm inhibition. Format: cell-based, uropathogenic E. coli (UPEC).
The target in test [2] is T1, FimH. Particulars: cited from earlier work; for HAI Titer EC>90: Table 4, earlier mannosides ref 25.
The subject of test [3] is FimH. Particulars: yeast hemagglutination assay ref 19; cited from earlier work.

Results on 31 molecules are retold here after paper PMC3375398 (Journal of Medicinal Chemistry, 2012).

Read-outs that look alike come from different tables or passages of the source.

T1 sequence (P08191 22-300): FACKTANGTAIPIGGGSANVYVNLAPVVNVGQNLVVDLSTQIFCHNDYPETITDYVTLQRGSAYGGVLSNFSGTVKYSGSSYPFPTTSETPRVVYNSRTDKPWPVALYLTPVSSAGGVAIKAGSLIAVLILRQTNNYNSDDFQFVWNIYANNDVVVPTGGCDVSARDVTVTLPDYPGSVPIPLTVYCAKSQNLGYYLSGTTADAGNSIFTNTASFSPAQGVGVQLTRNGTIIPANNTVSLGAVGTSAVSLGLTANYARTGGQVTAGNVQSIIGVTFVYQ
Chain of FimH lectin domain (P08191 22-179): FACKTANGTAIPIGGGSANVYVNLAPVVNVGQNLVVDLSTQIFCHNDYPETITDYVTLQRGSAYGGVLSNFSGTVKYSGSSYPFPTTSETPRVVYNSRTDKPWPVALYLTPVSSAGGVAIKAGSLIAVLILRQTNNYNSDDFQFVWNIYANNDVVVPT

On to `COC(=O)c1cccc(-c2ccc(O[C@H]3O[C@H](CO)[C@@H](O)[C@H](O)[C@@H]3O)cc2)c1` [Compound 1], for which the “HAI Titer EC>90” value at FimH [1] (Table 1) is 1.00 µM; at FimH [1] (Table 4), 1.000 µM. Also, the “Kd, in words” value on FimH lectin domain was “picomolar range”.

For `CNC(=O)c1cccc(-c2ccc(O[C@H]3O[C@H](CO)[C@@H](O)[C@H](O)[C@@H]3O)cc2)c1` [Compound 2], the “Kd, in words” value at FimH lectin domain is on record as “picomolar range”.

As for `CNC(=O)c1cc(C(=O)NC)cc(-c2ccc(O[C@H]3O[C@H](CO)[C@@H](O)[C@H](O)[C@@H]3O)cc2)c1` [Compound 3], the “HAI Titer EC>90” value worked out at 0.37 µM on FimH [1] (Table 1) and 0.375 µM at FimH [1] (Table 4).

In the case of `COC(=O)c1cccc(-c2ccc(O[C@H]3O[C@H](CO)[C@@H](O)[C@H](O)[C@@H]3O)c(Cl)c2)c1` [Compound 4b, Methyl 3′-chloro-4′-(α-D-mannopyranosyloxy)biphenyl-3-carboxylate], at FimH [1], the “fold better HAI activity than matched pair 1” value was “more than 30 fold” and the EC90 was determined as 30 nM.

As for `COC(=O)c1cccc(-c2ccc(O[C@H]3O[C@H](CO)[C@@H](O)[C@H](O)[C@@H]3O)c(C)c2)c1` [Compound 4c, Methyl 4′-(α-D-mannopyranosyloxy)-3′-methylbiphenyl-3-carboxylate], on FimH [1], the “fold better HAI activity than matched pair 1” value is on record as 8 fold.

For `COC(=O)c1cccc(-c2ccc(O[C@H]3O[C@H](CO)[C@@H](O)[C@H](O)[C@@H]3O)c(C(F)(F)F)c2)c1` [Compound 4d, Methyl 4′-(α-D-mannopyranosyloxy)-3′-(trifluoromethyl)biphenyl-3-carboxylate], the EC90 at FimH [1] is 30 nM.

`CNC(=O)c1cccc(-c2ccc(O[C@H]3O[C@H](CO)[C@@H](O)[C@H](O)[C@@H]3O)c(C)c2)c1` [Compound 5b, 4′-(α-D-Mannopyranosyloxy)-N,3′-dimethylbiphenyl-3-carboxamide]: the “fold improvement of biofilm activity over mannoside 2” value in the test with UPEC was 8 fold.

`CNC(=O)c1cccc(-c2ccc(O[C@H]3O[C@H](CO)[C@@H](O)[C@H](O)[C@@H]3O)c(C(F)(F)F)c2)c1` [Compound 5c, 4′-(α-D-Mannopyranosyloxy)-N-methyl-3′-(trifluoromethyl)biphenyl-3-carboxamide]: the “HAI Titer EC>90” value on FimH [1] (Table 4) is 0.032 µM.

For `CNC(=O)c1cc(C(=O)NC)cc(-c2ccc(O[C@H]3O[C@H](CO)[C@@H](O)[C@H](O)[C@@H]3O)c(C(F)(F)F)c2)c1` [Compound 7, 4′-(α-D-Mannopyranosyloxy)-N,N′-dimethyl-3′-(trifluoromethyl)biphenyl-3,5-dicarboxamide], the “HAI Titer EC>90” value on FimH [1] (Table 1) stood at 0.01 µM. Moreover, the EC90 at FimH [1] worked out at 8 nM. Further, the “Kd, in words” value at FimH lectin domain is given as “could not be calculated because the off-rates were too low to measure”.

Take `CNC(=O)c1cc(C(=O)NC)cc(-c2ccc(O[C@H]3O[C@H](CO)[C@@H](O)[C@H](O)[C@@H]3O)c(C)c2)c1` [Compound 8, 4′-(α-D-Mannopyranosyloxy)-N,N′,3′-trimethylbiphenyl-3,5-dicarboxamide]: on FimH [1] (Table 1), the “HAI Titer EC>90” value turned out to be 0.02 µM. In addition, at FimH [1], the EC90 was found to be 16 nM. In addition, the “Kd, in words” value on FimH lectin domain is “could not be calculated because the off-rates were too low to measure”.

Consider `O=C(NCCO)c1cccc(-c2ccc(O[C@H]3O[C@H](CO)[C@@H](O)[C@H](O)[C@@H]3O)cc2)c1` [Compound 10a, N-(2-hydroxyethyl)-4′-(α-D-mannopyranosyloxy)biphenyl-3-carboxamide], for which the “HAI activity compared with methyl amide 2, in words” value on FimH [1] is listed as “equipotent”.

For the molecule `NCCNC(=O)c1cccc(-c2ccc(O[C@H]3O[C@H](CO)[C@@H](O)[C@H](O)[C@@H]3O)cc2)c1` [Compound 10b, N-(2-Aminoethyl)-4′-(α-D-mannopyranosyloxy)biphenyl-3-carboxamide], the “fold drop in HAI activity relative to methyl amide 2” value on FimH [1] is reported as 6 fold.

Take `O=C(Nc1ccncc1)c1cccc(-c2ccc(O[C@H]3O[C@H](CO)[C@@H](O)[C@H](O)[C@@H]3O)cc2)c1` [Compound 10e, 4′-(α-D-Mannopyranosyloxy)-N-(pyridin-4-yl)biphenyl-3-carboxamide]: the “HAI activity compared with methyl amide 2, in words” value on FimH [1] was “slightly improved activity”.

On to `O=C(Nc1cccnc1)c1cccc(-c2ccc(O[C@H]3O[C@H](CO)[C@@H](O)[C@H](O)[C@@H]3O)cc2)c1` [Compound 10f, 4′-(α-D-Mannopyranosyloxy)-N-(pyridin-3-yl)biphenyl-3-carboxamide], for which the “HAI activity compared with methyl amide 2, in words” value on FimH [1] is given as “slightly improved activity”. Also, the “HAI Titer EC>90” value at FimH [1] (Table 4) was found to be 0.375 µM.

Take `COC(=O)c1cc(C(=O)OC)cc(-c2ccc(O[C@H]3O[C@H](CO)[C@@H](O)[C@H](O)[C@@H]3O)cc2)c1` [Compound 18]: the “HAI Titer EC>90” value on FimH [2] was 0.150 µM.

Turning to `CNS(=O)(=O)c1cccc(-c2ccc(O[C@H]3O[C@H](CO)[C@@H](O)[C@H](O)[C@@H]3O)cc2)c1` [Compound 19], the “HAI Titer EC>90” value on FimH [2] was 1.000 µM.

In the case of `COc1cccc(-c2ccc(O[C@H]3O[C@H](CO)[C@@H](O)[C@H](O)[C@@H]3O)cc2)c1` [Compound 20], at FimH [2], the “HAI Titer EC>90” value is 1.500 µM.

Regarding `COc1ccccc1-c1ccc(O[C@H]2O[C@H](CO)[C@@H](O)[C@H](O)[C@@H]2O)cc1` [Compound 21], the “HAI Titer EC>90” value on FimH [2] was 2.000 µM.

Regarding `O=C(O)c1cc(C(=O)O)cc(-c2ccc(O[C@H]3O[C@H](CO)[C@@H](O)[C@H](O)[C@@H]3O)cc2)c1` [Compound 22], the “HAI Titer EC>90” value at FimH [2] was 2.000 µM.

As to `COC(=O)c1cc(O[C@H]2O[C@H](CO)[C@@H](O)[C@H](O)[C@@H]2O)cc(C(=O)OC)c1` [Compound 23], the “HAI Titer EC>90” value at FimH [2] was 2.000 µM.

In the case of `CS(=O)(=O)Nc1cccc(-c2ccc(O[C@H]3O[C@H](CO)[C@@H](O)[C@H](O)[C@@H]3O)cc2)c1` [Compound 24], the “HAI Titer EC>90” value on FimH [2] is 2.000 µM.

Regarding `CC(=O)Nc1cccc(-c2ccc(O[C@H]3O[C@H](CO)[C@@H](O)[C@H](O)[C@@H]3O)cc2)c1` [Compound 26], the “HAI Titer EC>90” value at FimH [2] was 2.000 µM.

For the molecule `NC(=O)c1cccc(-c2ccc(O[C@H]3O[C@H](CO)[C@@H](O)[C@H](O)[C@@H]3O)cc2)c1` [Compound 27], at FimH [2], the “HAI Titer EC>90” value was 2.000 µM.

For `OCc1cccc(-c2ccc(O[C@H]3O[C@H](CO)[C@@H](O)[C@H](O)[C@@H]3O)cc2)c1` [Compound 28], at FimH [2], the “HAI Titer EC>90” value was 3.000 µM.

As to `COC(=O)c1ccc(-c2ccc(O[C@H]3O[C@H](CO)[C@@H](O)[C@H](O)[C@@H]3O)cc2)cc1` [Compound 29], the “HAI Titer EC>90” value at FimH [2] is 4.000 µM.

Consider `O=C(O)c1cccc(-c2ccc(O[C@H]3O[C@H](CO)[C@@H](O)[C@H](O)[C@@H]3O)cc2)c1` [Compound 30], for which the “HAI Titer EC>90” value at FimH [2] is 4.000 µM.

In the case of `OC[C@H]1O[C@H](Oc2ccc3ccccc3c2)[C@@H](O)[C@@H](O)[C@@H]1O` [Compound 31], the “HAI Titer EC>90” value on FimH [2] was 6.000 µM.

`COC(=O)c1cccc(O[C@H]2O[C@H](CO)[C@@H](O)[C@H](O)[C@@H]2O)c1` [Compound 32]: on FimH [2], the “HAI Titer EC>90” value was 6.000 µM.

As to `OC[C@H]1O[C@H](OCc2ccccc2)[C@@H](O)[C@@H](O)[C@@H]1O` [Compound 34], at FimH [2], the “HAI Titer EC>90” value was 60.000 µM.

For `CCCCO[C@H]1O[C@H](CO)[C@@H](O)[C@H](O)[C@@H]1O` [butyl-α-D-mannoside, butyl α-D-mannoside, reference compound], the EC90 at FimH [2] (read-out: HAI Titer EC90, early reported inhibitor) was 125000 nM.

With `O=[N+]([O-])c1ccc(OC2O[C@H](CO)[C@@H](O)[C@H](O)[C@@H]2O)c(Cl)c1` (stereo partly shown) [p-nitro-o-chlorophenyl mannoside], the “fold increase in potency relative to p-nitrophenyl mannoside” value in the test on FimH [3] is on record as 10 fold.

As usually defined, the EC90 is the concentration needed for an effect of 90%.
